The source of these data is article PMC6150234, “HPLC Analysis and Biochemical Characterization of LOX from Eschscholtzia californica Cham” (Molecules : A Journal of Synthetic Chemistry and Natural …, 2017).

By Km is commonly meant the substrate concentration at which the rate is half of its maximum.

In this assay the test system is T1, California poppy LOX (purified LOX from California poppy seedlings; 9/13-LOX).
T1 construct: 85 kDa on SDS-PAGE
Put plainly: A234 spectrophotometry; Lineweaver-Burk. The following applies: 100 mM potassium phosphate pH 6.5, room temperature; 0.476-1.33 mM LA. Format: biochemical, Eschscholzia californica.

In the case of `CCCCC/C=C\C/C=C\CCCCCCCC(=O)O` [linoleic acid], the Km was determined as 2600 µM.
